{"source": "ChEMBL document CHEMBL3826952", "about": "“Design and Synthesis of 2-Alkylpyrimidine-4,6-diol and 6-Alkylpyridine-2,4-diol as Potent GPR84 Agonists” (ACS Med Chem Lett, 2016)", "key": {"[1]": {"biological_target": "G-protein coupled receptor 84 (Homo sapiens, UniProt Q9NQS5)", "sequence (Q9NQS5 whole entry)": "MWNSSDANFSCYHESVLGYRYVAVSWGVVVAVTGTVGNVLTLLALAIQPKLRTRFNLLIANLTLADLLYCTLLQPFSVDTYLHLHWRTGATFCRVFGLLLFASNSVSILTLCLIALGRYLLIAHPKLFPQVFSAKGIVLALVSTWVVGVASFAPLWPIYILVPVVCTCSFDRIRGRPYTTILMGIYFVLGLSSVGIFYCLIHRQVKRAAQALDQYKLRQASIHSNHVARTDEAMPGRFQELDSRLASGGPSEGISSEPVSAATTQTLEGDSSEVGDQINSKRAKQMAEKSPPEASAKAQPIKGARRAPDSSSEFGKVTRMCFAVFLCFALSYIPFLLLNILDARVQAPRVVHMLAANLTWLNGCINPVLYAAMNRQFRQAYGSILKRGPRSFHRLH", "assay": "Agonist activity at GPR84 (unknown origin) expressed in HEK293 cells coexpressing Galpha16 protein by Fluo-4 AM dye based calcium mobilization assay", "format": "functional, cell-based"}, "[2]": {"biological_target": "T1, Free fatty acid receptor 1 (Homo sapiens, UniProt O14842)", "T1 sequence (O14842 whole entry)": "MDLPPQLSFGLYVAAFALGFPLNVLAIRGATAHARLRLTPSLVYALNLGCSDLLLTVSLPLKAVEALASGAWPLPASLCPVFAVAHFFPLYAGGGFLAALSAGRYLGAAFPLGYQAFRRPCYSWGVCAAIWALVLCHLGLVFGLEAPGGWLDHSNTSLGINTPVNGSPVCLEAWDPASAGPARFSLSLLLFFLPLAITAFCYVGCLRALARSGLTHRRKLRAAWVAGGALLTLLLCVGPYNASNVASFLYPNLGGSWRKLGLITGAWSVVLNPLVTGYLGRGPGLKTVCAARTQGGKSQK", "assay": "Agonist activity at GPR40 (unknown origin) up to 100 uM by Fluo-4 AM dye based calcium mobilization assay", "format": "functional"}, "[3]": {"biological_target": "T2, Free fatty acid receptor 3 (Homo sapiens) (UniProt O14843)", "T2 sequence (whole entry)": "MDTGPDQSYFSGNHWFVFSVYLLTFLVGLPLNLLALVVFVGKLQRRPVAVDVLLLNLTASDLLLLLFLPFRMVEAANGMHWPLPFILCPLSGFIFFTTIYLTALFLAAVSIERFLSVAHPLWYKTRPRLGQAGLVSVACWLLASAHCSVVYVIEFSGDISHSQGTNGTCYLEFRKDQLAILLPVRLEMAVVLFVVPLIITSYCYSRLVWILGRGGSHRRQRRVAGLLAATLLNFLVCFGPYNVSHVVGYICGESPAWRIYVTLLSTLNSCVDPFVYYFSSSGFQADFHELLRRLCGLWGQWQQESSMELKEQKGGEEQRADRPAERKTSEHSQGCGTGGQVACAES", "assay": "Agonist activity at GPR41 (unknown origin) up to 100 uM by Fluo-4 AM dye based calcium mobilization assay", "format": "functional"}, "[4]": {"biological_target": "T3, Glucose-dependent insulinotropic receptor (Homo sapiens) (UniProt Q8TDV5)", "T3 sequence (whole entry)": "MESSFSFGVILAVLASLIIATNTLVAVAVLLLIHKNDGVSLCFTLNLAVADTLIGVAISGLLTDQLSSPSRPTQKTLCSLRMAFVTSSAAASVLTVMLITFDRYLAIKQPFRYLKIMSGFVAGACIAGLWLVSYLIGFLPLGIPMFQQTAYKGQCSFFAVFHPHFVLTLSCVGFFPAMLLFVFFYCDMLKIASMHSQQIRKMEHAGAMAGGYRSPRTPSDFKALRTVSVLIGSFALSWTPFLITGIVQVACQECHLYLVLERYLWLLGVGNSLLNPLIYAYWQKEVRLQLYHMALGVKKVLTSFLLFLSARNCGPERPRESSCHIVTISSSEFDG", "assay": "Agonist activity at GPR119 (unknown origin) up to 100 uM by Fluo-4 AM dye based calcium mobilization assay", "format": "functional"}, "[5]": {"biological_target": "T4, Free fatty acid receptor 4 (Homo sapiens) (UniProt Q5NUL3)", "T4 sequence (whole entry)": "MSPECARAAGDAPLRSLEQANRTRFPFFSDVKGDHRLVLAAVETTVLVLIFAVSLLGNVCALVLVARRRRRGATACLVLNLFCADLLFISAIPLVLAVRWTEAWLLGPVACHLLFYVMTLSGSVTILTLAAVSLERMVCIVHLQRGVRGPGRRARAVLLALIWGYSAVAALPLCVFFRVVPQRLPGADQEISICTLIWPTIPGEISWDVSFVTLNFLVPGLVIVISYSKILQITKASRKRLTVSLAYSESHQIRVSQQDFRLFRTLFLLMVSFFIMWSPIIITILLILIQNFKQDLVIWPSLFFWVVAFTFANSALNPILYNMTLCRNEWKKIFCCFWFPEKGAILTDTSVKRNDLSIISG", "assay": "Agonist activity at GPR120 (unknown origin) up to 100 uM by Fluo-4 AM dye based calcium mobilization assay", "format": "functional"}, "[6]": {"assay": "Cmax in ICR mouse plasma at 10 mg/kg, po administered through gavage measured up to 24 hrs post dose by LC-MS/MS analysis", "format": "ADME, organism-based", "parameters": "dose 10 mg/kg, route oral"}, "[7]": {"assay": "AUC (0 to t) in ICR mouse plasma at 10 mg/kg, po administered through gavage measured up to 24 hrs post dose by LC-MS/MS analysis", "format": "ADME, organism-based", "parameters": "time < 24 hr, dose 10 mg/kg, route oral"}, "[8]": {"assay": "Oral bioavailability in ICR mouse at 10 mg/kg administered through gavage measured up to 24 hrs post dose by LC-MS/MS analysis", "format": "ADME, organism-based", "conditions": "in vivo"}, "[9]": {"biological_target": "T5, Glucose-dependent insulinotropic receptor (Homo sapiens, UniProt Q8TDV5)", "T5 sequence (Q8TDV5 whole entry)": "T3 sequence (whole entry)", "assay": "Agonist activity at GPR119 (unknown origin) by Fluo-4 AM dye based calcium mobilization assay", "format": "functional"}, "[10]": {"biological_target": "T6, Free fatty acid receptor 3 (Homo sapiens, UniProt O14843)", "T6 sequence (O14843 whole entry)": "T2 sequence (whole entry)", "assay": "Agonist activity at GPR41 (unknown origin) by Fluo-4 AM dye based calcium mobilization assay", "format": "functional"}, "[11]": {"biological_target": "T1, Free fatty acid receptor 1", "assay": "Agonist activity at GPR40 (unknown origin) by Fluo-4 AM dye based calcium mobilization assay", "format": "functional"}}, "note": "pEC50: −log10 of the molar value. The source made the active and inactive calls. The calls are words filed in the database; no cut-off is given here.", "data": [{"smiles": "N#CCCCCc1nc(O)cc(O)n1", "values": [{"measurement": "pEC50", "setting": "[1]", "value": "< 4.00"}]}, {"smiles": "Cc1c(O)nc(SCCCCc2ccccc2)nc1O", "values": [{"measurement": "pEC50", "setting": "[1]", "value": "< 4.00"}]}, {"smiles": "CCCCCCCCCc1cc(O)cc(O)n1", "values": [{"measurement": "Activity", "setting": "[2]", "value": "inactive"}, {"measurement": "Activity", "setting": "[3]", "value": "inactive"}, {"measurement": "Activity", "setting": "[4]", "value": "inactive"}, {"measurement": "Activity", "setting": "[5]", "value": "inactive"}, {"measurement": "Cmax", "setting": "[6]", "value": 229, "unit": "ng/mL"}, {"measurement": "AUC(0-t) at 24 h", "setting": "[7]", "value": 399, "unit": "ng·h/mL"}, {"measurement": "bioavailability", "setting": "[8]", "value": 24.3, "unit": "%"}]}, {"smiles": "C#CCCSc1nc(O)cc(O)n1", "values": [{"measurement": "pEC50", "setting": "[1]", "value": 5.05}]}, {"smiles": "CCCCCCc1nc(O)cc(O)n1", "values": [{"measurement": "pEC50", "setting": "[1]", "value": 6.34}]}, {"smiles": "CCCCCCSc1nc(O)cc(=O)n1Cc1ccccc1", "values": [{"measurement": "pEC50", "setting": "[1]", "value": "< 4.00"}]}, {"smiles": "OCCCCCCCCSc1nc(O)cc(O)n1", "values": [{"measurement": "pEC50", "setting": "[1]", "value": "< 4.00"}]}, {"smiles": "Nc1cc(O)nc(SCCCCc2ccccc2)n1", "values": [{"measurement": "pEC50", "setting": "[1]", "value": "< 4.00"}]}, {"smiles": "CCCCCCOc1cc(O)nc(SCCCCCC)n1", "values": [{"measurement": "pEC50", "setting": "[1]", "value": "< 4.00"}]}, {"smiles": "CC(C)(C)OC(=O)N1CCC(OCc2nc(-c3ccncc3)no2)CC1", "values": [{"measurement": "pEC50", "setting": "[9]", "value": 5.29}]}, {"smiles": "CC/C=C\\CCSc1nc(O)cc(O)n1", "values": [{"measurement": "pEC50", "setting": "[1]", "value": 6.03}]}, {"smiles": "CCCCCCSc1nc(OCCCCCCCO)cc(=O)[nH]1", "values": [{"measurement": "pEC50", "setting": "[1]", "value": "< 4.00"}]}, {"smiles": "CCCCCCSc1nc(O)cc(=O)n1C", "values": [{"measurement": "pEC50", "setting": "[1]", "value": "< 4.00"}]}, {"smiles": "Cc1cc(O)nc(SCCCCc2ccccc2)n1", "values": [{"measurement": "pEC50", "setting": "[1]", "value": "< 4.00"}]}, {"smiles": "Nc1cc(N)nc(SCCCCc2ccccc2)n1", "values": [{"measurement": "pEC50", "setting": "[1]", "value": "< 4.00"}]}, {"smiles": "Oc1cc(C(F)(F)F)nc(SCCCCc2ccccc2)n1", "values": [{"measurement": "pEC50", "setting": "[1]", "value": "< 4.00"}]}, {"smiles": "CCCC(=O)[O-].[Na+]", "note": "[SODIUM BUTYRATE]", "values": [{"measurement": "pEC50", "setting": "[10]", "value": 5.00}]}, {"smiles": "CC/C=C\\C/C=C\\C/C=C\\C/C=C\\C/C=C\\C/C=C\\CCC(=O)O", "note": "[DOCONEXENT]", "values": [{"measurement": "pEC50", "setting": "[11]", "value": 4.93}]}]}
